From PubChem BioAssay AID328 (DTP/NCI, 2004)
“And” between values parts separate entries of the source, which are not always exact repeats. Equal entries are not always repeated. Toxic doses and inconclusive results are not listed. Starred links: 1 amine or outer side, 2 acyl side, 3 side chain; linkers in the order of their positions; H or OH if unused. Positions of bridges follow the written chain, without caps; N, C: chain ends. Non-standard residues stand in square brackets, D forms with d. Residues, ends and D or L forms follow the SMILES beside them. Chains are numbered I, II in the order given. Actinocin(1to9) = Cc1c2oc3c(C)ccc(C(=O)[*:2])c3nc-2c(C(=O)[*:1])c(N)c1=O; NMeV = CN[CH](C(=O)O)C(C)C; Aze = O=C(O)[CH]1CCN1; Sar = CNCC(=O)O

System: BDF1 mice, P388 leukemia ip, median survival T/C
Experiment: NCI In Vivo Anticancer Drug Screen. Data for tumor model P388 Leukemia (intraperitoneal) in B6D2F1 (BDF1) mice
Conditions: endpoint: median survival time, higher = longer survival
Outline: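 Each value expresses how treatment altered survival: treated-mouse outcome over vehicle-mouse outcome, both groups bearing the transplanted tumour.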

[1] = dose: 10.0 mg/kg/injection, schedule: Q01DX009 (ip), vehicle: Klucel (hydroxypropylcellulose) (HPC)
[2] = dose: 25.0 mg/kg/injection, schedule: Q01DX009 (ip), vehicle: Klucel (hydroxypropylcellulose) (HPC)
[3] = dose: 100.0 mg/kg/injection, schedule: Q04DX003 (ip), vehicle: saline
[4] = dose: 50.0 mg/kg/injection, schedule: Q01DX009 (ip), vehicle: Klucel (hydroxypropylcellulose) (HPC)
[5] = dose: 100.0 mg/kg/injection, schedule: Q01DX009 (ip), vehicle: Klucel (hydroxypropylcellulose) (HPC)
[6] = dose: 200.0 mg/kg/injection, schedule: Q01DX009 (ip), vehicle: Klucel (hydroxypropylcellulose) (HPC)
[7] = dose: 100.0 mg/kg/injection, schedule: Q04DX003 (ip), vehicle: saline with Tween-80
[8] = dose: 50.0 mg/kg/injection, schedule: Q01DX009 (ip), vehicle: saline
[9] = dose: 50.0 mg/kg/injection, schedule: Q01DX009 (ip), vehicle: saline with Tween-80

Q: With `COc1ccc(C(SCC(N)C(=O)O)(c2ccccc2)c2ccc(OC)cc2)cc1` (stereo not given) as the molecule, how does the T/C (dose: 3.0 mg/kg/injection, schedule: Q01DX009 (ip), vehicle: Klucel (hydroxypropylcellulose) (HPC)) read?
A: The T/C was 123 % of control.

Q: And the T/C (dose: 4.8 mg/kg/injection, schedule: Q04DX003 (ip), vehicle: Klucel (hydroxypropylcellulose) (HPC))?
A: The T/C was 104 % of control.

Q: What about the T/C (dose: 7.0 mg/kg/injection, schedule: Q01DX009 (ip), vehicle: Klucel (hydroxypropylcellulose) (HPC)) of the same molecule?
A: The T/C was 150 % of control.

Q: And the T/C (dose: 7.2 mg/kg/injection, schedule: Q04DX003 (ip), vehicle: Klucel (hydroxypropylcellulose) (HPC))?
A: The T/C was 104 % of control.

Q: What about the T/C [1] of the same molecule?
A: Its T/C is 170 % of control.

Q: And the T/C (dose: 11.0 mg/kg/injection, schedule: Q04DX003 (ip), vehicle: Klucel (hydroxypropylcellulose) (HPC))?
A: Its T/C is 122 % of control.

Q: What about the T/C (dose: 16.0 mg/kg/injection, schedule: Q01DX009 (ip), vehicle: Klucel (hydroxypropylcellulose) (HPC)) of the same molecule?
A: The T/C was 154 % of control.

Q: What about the T/C [2] of the same molecule?
A: Its T/C is 172 % of control and 181 % of control.

Q: What about the T/C (dose: 25.0 mg/kg/injection, schedule: Q04DX003 (ip), vehicle: saline) of the same molecule?
A: The T/C was 154 % of control.

Q: What about the T/C (dose: 33.0 mg/kg/injection, schedule: Q04DX003 (ip), vehicle: saline) of the same molecule?
A: The T/C was 209 % of control.

Q: And the T/C (dose: 35.0 mg/kg/injection, schedule: Q01DX009 (ip), vehicle: Klucel (hydroxypropylcellulose) (HPC))?
A: The T/C was 204 % of control.

Q: And the T/C (dose: 50.0 mg/kg/injection, schedule: Q04DX003 (ip), vehicle: saline)?
A: The T/C was 209 % of control and 213 % of control.

Q: And the T/C (dose: 75.0 mg/kg/injection, schedule: Q04DX003 (ip), vehicle: saline)?
A: The T/C was 231 % of control.

Q: And the T/C [3]?
A: Its T/C is 95 % of control.

Q: For `O=NN(c1ccccc1)c1ccc(N(N=O)c2ccccc2)cc1`, which T/C [4] is on record?
A: Its T/C is 100 % of control.

Q: And the T/C [5]?
A: The T/C was 105 % of control.

Q: What about the T/C [6] of the same molecule?
A: Its T/C is 110 % of control.

Q: How did the T/C [7] turn out when `CCOC(=O)C(C#N)c1cccc(C)c1` (stereo not given) was run?
A: Its T/C is 100 % of control.

Q: What about the T/C (dose: 200.0 mg/kg/injection, schedule: Q04DX003 (ip), vehicle: saline with Tween-80) of the same molecule?
A: The T/C was 100 % of control.

Q: Which T/C [8] does the source give for `CCN(CC)Cc1nccn1-c1ccc([N+](=O)[O-])cc1C(=O)c1ccccc1Cl` here?
A: The T/C was 100 % of control.

Q: And the T/C (dose: 100.0 mg/kg/injection, schedule: Q01DX009 (ip), vehicle: saline)?
A: Its T/C is 118 % of control.

Q: Which results are given for `CC1(C)O[C@]2(C)CC[C@@H]1[C@H](O)[C@@H]2N1CCCC1`?
A: T/C (dose: 50.0 mg/kg/injection, schedule: Q01DX005 (ip), vehicle: saline with Tween-80): 111 % of control; T/C (dose: 100.0 mg/kg/injection, schedule: Q01DX005 (ip), vehicle: saline with Tween-80): 104 % of control

Q: With `O=c1cc(CO)[nH]cc1O` as the molecule, how does the T/C (dose: 177.0 mg/kg/injection, schedule: Q01DX009 (ip), vehicle: Klucel (hydroxypropylcellulose) (HPC)) read?
A: Its T/C is 119 % of control.

Q: `CCN(CC)CCN1C(=O)c2cccc3cccc(c23)C1=O` was tested. Which T/C [8] did it give?
A: The T/C was 105 % of control.

Q: And the T/C (dose: 66.0 mg/kg/injection, schedule: Q01DX009 (ip), vehicle: saline)?
A: Its T/C is 109 % of control.

Q: And the T/C [3]?
A: Its T/C is 110 % of control.

Q: And the T/C (dose: 150.0 mg/kg/injection, schedule: Q01DX009 (ip), vehicle: saline)?
A: The T/C was 172 % of control and 181 % of control.

Q: And the T/C (dose: 200.0 mg/kg/injection, schedule: Q04DX003 (ip), vehicle: saline)?
A: The T/C was 95 % of control.

Q: How did the T/C [9] turn out when `O=[N+]([O-])c1ccc(NS(=O)(=O)c2cccs2)c([N+](=O)[O-])c1` was run?
A: Its T/C is 96 % of control.

Q: For `Cc1ccc(N2C=Nc3ccc(C)cc3C2)cc1`, which T/C [1] is on record?
A: Its T/C is 100 % of control.

Q: And the T/C (dose: 15.0 mg/kg/injection, schedule: Q01DX009 (ip), vehicle: Klucel (hydroxypropylcellulose) (HPC))?
A: The T/C was 100 % of control.

Q: And the T/C [2]?
A: The T/C was 90 % of control.

Q: And the T/C (dose: 40.0 mg/kg/injection, schedule: Q01DX009 (ip), vehicle: Klucel (hydroxypropylcellulose) (HPC))?
A: The T/C was 100 % of control.

Q: What about the T/C [4] of the same molecule?
A: The T/C was 118 % of control.

Q: And the T/C [5]?
A: Its T/C is 109 % of control.

Q: What about the T/C (dose: 100.0 mg/kg/injection, schedule: Q04DX003 (ip), vehicle: other) of the same molecule?
A: Its T/C is 109 % of control.

Q: And the T/C [6]?
A: Its T/C is 90 % of control.

Q: What about the T/C (dose: 200.0 mg/kg/injection, schedule: Q04DX003 (ip), vehicle: other) of the same molecule?
A: The T/C was 104 % of control.

Q: `O=C1OC2(CCCCC2)OC(=O)C1=C/C=C/c1ccc([N+](=O)[O-])o1` was tested. Which T/C (dose: 3.13 mg/kg/injection, schedule: Q01DX009 (ip), vehicle: saline with Tween-80) did it give?
A: The T/C was 100 % of control.

Q: What about the T/C (dose: 6.25 mg/kg/injection, schedule: Q01DX009 (ip), vehicle: saline with Tween-80) of the same molecule?
A: Its T/C is 98 % of control.

Q: And the T/C (dose: 12.5 mg/kg/injection, schedule: Q01DX009 (ip), vehicle: saline with Tween-80)?
A: The T/C was 91 % of control and 121 % of control.

Q: And the T/C (dose: 25.0 mg/kg/injection, schedule: Q01DX009 (ip), vehicle: saline with Tween-80)?
A: The T/C was 97 % of control and 99 % of control.

Q: And the T/C [9]?
A: The T/C was 112 % of control.

Q: What does the source list for `Cc1c2oc3c(C)ccc(C(=O)NC4C(=O)NC(C(C)C)C(=O)N5CCCC5C(=O)N(C)CC(=O)N(C)C(C(C)C)C(=O)OC4C)c3nc-2c(C(=O)NC2C(=O)NC(C(C)C)C(=O)N3CCC3C(=O)N(C)CC(=O)N(C)C(C(C)C)C(=O)OC2C)c(N)c1=O` (stereo not given) (I: TV[Aze][Sar][NMeV] / II: TVP[Sar][NMeV]; ester I:1-I:C, II:1-II:C; linker I:N-II:N via Actinocin(1to9); configuration not given here)?
A: T/C (dose: 0.26 mg/kg/injection, schedule: Q04DX003 (ip), vehicle: saline): 201 % of control; T/C (dose: 0.3 mg/kg/injection, schedule: Q04DX003 (ip), vehicle: saline + alcohol): 265 % of control and 168 % of control; T/C (dose: 0.4 mg/kg/injection, schedule: Q04DX003 (ip), vehicle: saline): 250 % of control; T/C (dose: 0.45 mg/kg/injection, schedule: Q04DX003 (ip), vehicle: saline + alcohol): 256 % of control and 223 % of control; T/C (dose: 0.6 mg/kg/injection, schedule: Q04DX003 (ip), vehicle: saline + alcohol): 230 % of control and 159 % of control; T/C (dose: 0.6 mg/kg/injection, schedule: Q04DX003 (ip), vehicle: saline): 373 % of control; T/C (dose: 0.9 mg/kg/injection, schedule: Q04DX003 (ip), vehicle: saline + alcohol): 123 % of control and 219 % of control; T/C (dose: 0.9 mg/kg/injection, schedule: Q04DX003 (ip), vehicle: saline): 551 % of control; T/C (dose: 1.2 mg/kg/injection, schedule: Q04DX003 (ip), vehicle: saline + alcohol): 97 % of control and 117 % of control; T/C (dose: 1.3 mg/kg/injection, schedule: Q04DX003 (ip), vehicle: saline): 551 % of control; T/C (dose: 12.5 micrograms/kg/injection, schedule: Q01DX009 (ip), vehicle: saline + alcohol): 197 % of control; T/C (dose: 25.0 micrograms/kg/injection, schedule: Q01DX009 (ip), vehicle: saline + alcohol): 218 % of control; T/C (dose: 50.0 micrograms/kg/injection, schedule: Q01DX009 (ip), vehicle: saline + alcohol): 263 % of control; T/C (dose: 75.0 micrograms/kg/injection, schedule: Q04DX003 (ip), vehicle: saline + alcohol): 205 % of control; T/C (dose: 100.0 micrograms/kg/injection, schedule: Q01DX009 (ip), vehicle: saline + alcohol): 270 % of control; T/C (dose: 112.5 micrograms/kg/injection, schedule: Q01DX009 (ip), vehicle: saline + alcohol): 265 % of control; T/C (dose: 150.0 micrograms/kg/injection, schedule: Q01DX009 (ip), vehicle: saline + alcohol): 212 % of control; T/C (dose: 150.0 micrograms/kg/injection, schedule: Q04DX003 (ip), vehicle: saline + alcohol): 226 % of control and 153 % of control; T/C (dose: 200.0 micrograms/kg/injection, schedule: Q01DX009 (ip), vehicle: saline + alcohol): 622 % of control; T/C (dose: 225.0 micrograms/kg/injection, schedule: Q01DX009 (ip), vehicle: saline + alcohol): 105 % of control; T/C (dose: 300.0 micrograms/kg/injection, schedule: Q01DX009 (ip), vehicle: saline + alcohol): 95 % of control; T/C (dose: 300.0 micrograms/kg/injection, schedule: Q04DX003 (ip), vehicle: saline + alcohol): 250 % of control and 197 % of control; T/C (dose: 450.0 micrograms/kg/injection, schedule: Q01DX009 (ip), vehicle: saline + alcohol): 94 % of control; T/C (dose: 600.0 micrograms/kg/injection, schedule: Q04DX003 (ip), vehicle: saline + alcohol): 385 % of control and 388 % of control; T/C (dose: 1200.0 micrograms/kg/injection, schedule: Q04DX003 (ip), vehicle: saline + alcohol): 104 % of control

Q: What does the source list for `O=[N+]([O-])c1ccc(N(CCO)CCO)c2nonc12`?
A: T/C (dose: 15.0 mg/kg/injection, schedule: Q01DX009 (ip), vehicle: saline with Tween-80): 101 % of control; T/C (dose: 25.0 mg/kg/injection, schedule: Q04DX003 (ip), vehicle: saline with Tween-80): 114 % of control; T/C (dose: 30.0 mg/kg/injection, schedule: Q01DX009 (ip), vehicle: saline with Tween-80): 100 % of control; T/C (dose: 50.0 mg/kg/injection, schedule: Q04DX003 (ip), vehicle: saline with Tween-80): 97 % of control; T/C (dose: 60.0 mg/kg/injection, schedule: Q01DX009 (ip), vehicle: saline with Tween-80): 101 % of control; T/C [7]: 98 % of control
